Measured values reported in BindingDB's records for doi:10.1016/j.bmcl.2009.04.040 (The University of Texas Southwestern Medical Center At …, 2009).
pEC50: −log10 of the molar value.

target: Proto-oncogene Wnt-3 (Homo sapiens, UniProt P56703); assay: Inhibition of Wnt3 expressed in mouse L-cells assessed as inhibition of Wnt/catanin signaling pathway by luciferase reporter gene assay
Sequence (P56703 whole entry): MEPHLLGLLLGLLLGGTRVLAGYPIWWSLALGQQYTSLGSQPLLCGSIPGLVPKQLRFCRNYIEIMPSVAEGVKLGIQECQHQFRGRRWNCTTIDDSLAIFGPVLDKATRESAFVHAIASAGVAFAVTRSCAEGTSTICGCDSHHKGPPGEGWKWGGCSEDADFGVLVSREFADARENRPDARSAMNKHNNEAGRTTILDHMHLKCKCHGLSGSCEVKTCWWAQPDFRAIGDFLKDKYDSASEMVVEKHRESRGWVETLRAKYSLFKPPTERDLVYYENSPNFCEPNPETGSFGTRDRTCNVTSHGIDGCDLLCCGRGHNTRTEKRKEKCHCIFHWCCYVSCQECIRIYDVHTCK

Row | SMILES | pEC50
1 | O=C(NC1CCCc2cccnc21)c1ccc(-n2c(O)c3c(c2O)[C@H]2C=C[C@@H]3C2)cc1 (stereo partly drawn) [4-((1R,2S,6R,7S)-3,5-Dioxo-4-aza-tricyclo[5.2.1.0*2,6*]dec-8-en-4-yl)-N-(5,6,7,8-tetrahydro-quinolin-8-yl)-benzamide] | 5.00
2 | Cc1cc(-n2c(O)c3c(c2O)[C@H]2C=C[C@@H]3C2)ccc1C(=O)Nc1cccc2cccnc12 [4-((1R,2S,6R,7S)-3,5-Dioxo-4-aza-tricyclo[5.2.1.0*2,6*]dec-8-en-4-yl)-2-methyl-N-quinolin-8-yl-benzamide] | 5.70
3 | O=C(Nc1cccc2cccnc12)N1CCC(N2C(=O)[C@@H]3[C@H](C2=O)[C@@H]2C=C[C@H]3C2)CC1 [4-((1R,2S,6R,7S)-3,5-Dioxo-4-aza-tricyclo[5.2.1.0*2,6*]dec-8-en-4-yl)-piperidine-1-carboxylic acid quinolin-8-ylamide] | 5.00
4 | O=C(Nc1ccc(Br)cc1)c1ccc(-n2c(O)c3c(c2O)[C@H]2C=C[C@@H]3C2)cc1 [N-(4-Bromo-phenyl)-4-((1R,2S,6R,7S)-3,5-dioxo-4-aza-tricyclo[5.2.1.0*2,6*]dec-8-en-4-yl)-benzamide] | 6.00
5 | Cc1ccc2cccnc2c1NC(=O)[C@H]1CC[C@H](N2C(=O)[C@@H]3[C@H](C2=O)[C@@H]2C=C[C@H]3C2)CC1 [4-((1R,2S,6R,7S)-3,5-Dioxo-4-aza-tricyclo[5.2.1.0*2,6*]dec-8-en-4-yl)-cyclohexanecarboxylic acid(7-methyl-quinolin-8-yl)-amide] | 6.00
6 | Cc1ccnc2c(NC(=O)[C@H]3CC[C@H](CN4C(=O)[C@@H]5[C@H](C4=O)[C@@H]4C=C[C@H]5C4)CC3)cccc12 [4-((1R,2S,6R,7S)-3,5-Dioxo-4-aza-tricyclo[5.2.1.0*2,6*]dec-8-en-4-ylmethyl)-cyclohexanecarboxylic acid(4-methyl-quinolin-8-yl)-amide] | < 4.60
7 | O=C(Nc1cccc2cccnc12)c1ccc(-n2c(O)c3c(c2O)[C@H]2C=C[C@@H]3C2)cc1Cl [2-Chloro-4-((1R,2S,6R,7S)-3,5-dioxo-4-aza-tricyclo[5.2.1.0*2,6*]dec-8-en-4-yl)-N-quinolin-8-yl-benzamide] | 6.00

More lines, now with the values ahead:

Row | pEC50 | SMILES
8 | < 4.60 | O=C(Nc1ccccc1Br)c1ccc(-n2c(O)c3c(c2O)[C@H]2C=C[C@@H]3C2)cc1 [N-(2-Bromo-phenyl)-4-((1R,2S,6R,7S)-3,5-dioxo-4-aza-tricyclo[5.2.1.0*2,6*]dec-8-en-4-yl)-benzamide]
9 | 6.00 | COc1ccccc1NC(=O)c1ccc(-n2c(O)c3c(c2O)[C@H]2C=C[C@@H]3C2)cc1 [4-((1R,2S,6R,7S)-3,5-Dioxo-4-aza-tricyclo[5.2.1.0*2,6*]dec-8-en-4-yl)-N-(2-methoxy-phenyl)-benzamide]
10 | < 4.60 | O=C(Nc1ccccc1F)c1ccc(-n2c(O)c3c(c2O)[C@H]2C=C[C@@H]3C2)cc1 [4-((1R,2S,6R,7S)-3,5-Dioxo-4-aza-tricyclo[5.2.1.0*2,6*]dec-8-en-4-yl)-N-(2-fluoro-phenyl)-benzamide]
11 | < 4.60 | O=C(Nc1ccccc1C(F)(F)F)c1ccc(-n2c(O)c3c(c2O)[C@H]2C=C[C@@H]3C2)cc1 [4-((1R,2S,6R,7S)-3,5-Dioxo-4-aza-tricyclo[5.2.1.0*2,6*]dec-8-en-4-yl)-N-(2-trifluoromethyl-phenyl)-benzamide]
12 | 4.70 | O=C(Nc1cccc(C(F)(F)F)c1)c1ccc(-n2c(O)c3c(c2O)[C@H]2C=C[C@@H]3C2)cc1 [4-((1R,2S,6R,7S)-3,5-Dioxo-4-aza-tricyclo[5.2.1.0*2,6*]dec-8-en-4-yl)--(3-trifluoromethyl-phenyl)-benzamide]
